“And” between values parts separate entries of the source, which are not always exact repeats. Equal entries are not always repeated. Where two headings read alike, the source gives them in different places.
Columns and labels:
[1] = system: U251; assay: NCI cytotoxicity screen; assay type: cell-based, human; conditions: U-251
[2] = system: NCI-H460; assay: NCI cytotoxicity screen; assay type: cell-based, human; conditions: 10.0 μM one dose
[3] = system: HCC-2998; assay: NCI cytotoxicity screen; assay type: cell-based, human
[4] = system: UO-31; assay: NCI cytotoxicity screen; assay type: cell-based, human
[5] = system: PC-3; assay: NCI cytotoxicity screen; assay type: cell-based, human; conditions: 10.0 μM one dose
[6] = system: 59 cancer cell lines; assay: NCI cytotoxicity screen, full panel; assay type: cell-based, human; conditions: for TGI MG_MID / GI50: full panel mean-graph midpoint; for GI50: read-out: GI50 MG_MID
[7] = system: A549/ATCC; assay: NCI cytotoxicity screen; assay type: cell-based, human
[8] = system: COLO 205; assay: NCI cytotoxicity screen; assay type: cell-based, human; conditions: 10.0 μM one dose; COLO-205
[9] = system: EKVX; assay: NCI cytotoxicity screen; assay type: cell-based, human
[10] = system: SR; assay: NCI cytotoxicity screen; assay type: cell-based, human
[11] = system: HCT-15; assay: NCI cytotoxicity screen; assay type: cell-based, human
[12] = system: HT29; assay: NCI cytotoxicity screen; assay type: cell-based, human; conditions: HT-29
[13] = system: SN12C; assay: NCI cytotoxicity screen; assay type: cell-based, human; conditions: 10.0 μM one dose; SN-12C
[14] = system: 786-0; assay: NCI cytotoxicity screen; assay type: cell-based, human
[15] = system: UACC-62; assay: NCI cytotoxicity screen; assay type: cell-based, human
[16] = system: OVCAR-3; assay: NCI cytotoxicity screen; assay type: cell-based, human
[17] = system: SF-539; assay: NCI cytotoxicity screen; assay type: cell-based, human
[18] = system: BT-549; assay: NCI cytotoxicity screen; assay type: cell-based, human
[19] = system: UACC-257; assay: NCI cytotoxicity screen; assay type: cell-based, human; conditions: 10.0 μM one dose
[20] = system: RXF 393; assay: NCI cytotoxicity screen; assay type: cell-based, human
[21] = system: NCI-H23; assay: NCI cytotoxicity screen; assay type: cell-based, human
[22] = system: SK-MEL-5; assay: NCI cytotoxicity screen; assay type: cell-based, human
[23] = system: HOP-62; assay: NCI cytotoxicity screen; assay type: cell-based, human
[24] = system: OVCAR-4; assay: NCI cytotoxicity screen; assay type: cell-based, human
[25] = system: SF-295; assay: NCI cytotoxicity screen; assay type: cell-based, human
[26] = system: T-47D; assay: NCI cytotoxicity screen; assay type: cell-based, human; conditions: 10.0 μM one dose; T-47D
[27] = system: OVCAR-8; assay: NCI cytotoxicity screen; assay type: cell-based, human
[28] = system: RPMI-8226; assay: NCI cytotoxicity screen; assay type: cell-based, human
[29] = system: CAKI-1; assay: NCI cytotoxicity screen; assay type: cell-based, human
[30] = system: SNB-75; assay: NCI cytotoxicity screen; assay type: cell-based, human; conditions: 10.0 μM one dose
[31] = system: OVCAR-5; assay: NCI cytotoxicity screen; assay type: cell-based, human
[32] = system: ACHN; assay: NCI cytotoxicity screen; assay type: cell-based, human
[33] = system: NCI-H322M; assay: NCI cytotoxicity screen; assay type: cell-based, human
[34] = system: MDA-MB-231/ATCC; assay: NCI cytotoxicity screen; assay type: cell-based, human
[35] = system: K-562; assay: cells; conditions: Homo sapiens, K562
[36] = system: Leukemia subpanel tumor cell lines; assay: NCI cytotoxicity screen, subpanel; assay type: cell-based, human; conditions: subpanel value, Leukemia
[37] = system: Ovarian cancer subpanel tumor cell lines; assay: NCI cytotoxicity screen, subpanel; assay type: cell-based, human; conditions: subpanel value, Ovarian cancer
[38] = system: NCI/ADR-RES; assay: NCI cytotoxicity screen; assay type: cell-based, human; conditions: Homo sapiens, five-dose
[39] = system: CNS cancer subpanel tumor cell lines; assay: NCI cytotoxicity screen, subpanel; assay type: cell-based, human; conditions: subpanel value, CNS cancer
[40] = system: Breast cancer subpanel tumor cell lines; assay: NCI cytotoxicity screen, subpanel; assay type: cell-based, human; conditions: subpanel value, Breast cancer
[41] = system: Melanoma subpanel tumor cell lines; assay: NCI cytotoxicity screen, subpanel; assay type: cell-based, human; conditions: subpanel value, Melanoma
[42] = system: NSC lung cancer subpanel tumor cell lines; assay: NCI cytotoxicity screen, subpanel; assay type: cell-based, human; conditions: subpanel value, NSC lung cancer
[43] = system: Prostate cancer subpanel tumor cell lines; assay: NCI cytotoxicity screen, subpanel; assay type: cell-based, human; conditions: subpanel value, Prostate cancer

Structure (SMILES): NS(=O)(=O)c1ccc(Cn2c(SCC(=O)NN=Cc3ccccc3O)nc3ccccc3c2=O)cc1 [Compound 6, 4-((2-((2-(2-(2-Hydroxybenzylidene)hydrazineyl)-2-oxoethyl)thio)-4-oxoquinazolin-3(4H)-yl)methyl)benzenesulfonamide]
- GI % ([1]; 10.0 μM one dose): 57%
- GI % [2]: 51%
- GI % ([3]; 10.0 μM one dose, HCC-2998): 50%
- GI % ([4]; 10.0 μM one dose): 39%
- GI % [5]: 33%
- MG% (mean growth percent) ([6]; 10.0 μM one dose, 59 cell lines): 55.2% and 55.22%
- GI % ([7]; 10.0 μM one dose, A549/ATCC): 31%
- GI % [8]: 71%
- GI % ([9]; 10.0 μM one dose): 40%
- GI % ([10]; 10.0 μM one dose): 76%
- GI % ([11]; 10.0 μM one dose): 25%
- GI % ([12]; 10.0 μM one dose): 14%
- GI % [13]: 44%
- GI % ([14]; 10.0 μM one dose): 29%
- GI % ([15]; 10.0 μM one dose): 62%
- GI % ([16]; 10.0 μM one dose, IGROV-3): 87%
- GI % ([17]; 10.0 μM one dose): 46%
- GI % ([18]; 10.0 μM one dose): 44%
- GI % [19]: 30%
- GI % ([20]; 10.0 μM one dose): 28%
- GI % ([21]; 10.0 μM one dose): 37%
- GI % ([22]; 10.0 μM one dose): 42%
- GI % ([23]; 10.0 μM one dose): 65%
- GI % ([24]; 10.0 μM one dose, IGROV-4): 60%
- GI % ([25]; 10.0 μM one dose): 35%
- GI % [26]: 67%
- GI % ([27]; 10.0 μM one dose): 56%
- GI % ([28]; 10.0 μM one dose): 51%
- GI % ([29]; 10.0 μM one dose): 46%
- GI % [30]: 15%
- GI % ([31]; 10.0 μM one dose, IGROV-5): 32%
- GI % ([32]; 10.0 μM one dose): 28%
- GI % ([33]; 10.0 μM one dose): 53%
- GI % ([34]; 10.0 μM one dose, MDA-MB-231/ATCC): 70%

Structure (SMILES): COc1cc2ncnc(Nc3ccc(F)c(Cl)c3)c2cc1OCCCN1CCOCC1 [Gefitinib, reference compound]
- GI50 ([1]; Homo sapiens): 10 µM
- GI50 ([3]; Homo sapiens, HCC 2998): 10 µM
- GI50 ([4]; Homo sapiens): 1.25 µM
- CC50 ([6]; Homo sapiens, read-out: LC50 MG_MID, full panel mean-graph midpoint): 95.6 µM
- TGI MG_MID [6]: 14.3 µM
- TGI MG_MID ([6]; listed as gefitinib): 66.3 µM
- GI50 [6]: 2.1 µM
- GI50 ([6]; listed as gefitinib): 7.7 µM
- GI50 [35]: 2.51 µM
- GI50 ([7]; Homo sapiens, A549): 7.94 µM
- GI50 ([9]; Homo sapiens): 0.005 µM
- GI50 ([36]; Homo sapiens): 2.6 µM
- GI50 [36]: 2.56 µM
- TGI [36]: 12.07 µM
- GI50 ([10]; Homo sapiens): 3.16 µM
- GI50 ([11]; Homo sapiens): 5.01 µM
- GI50 ([12]; Homo sapiens): 3.98 µM
- GI50 ([14]; Homo sapiens): 7.94 µM
- GI50 ([15]; Homo sapiens): 5.01 µM
- GI50 ([16]; Homo sapiens, OVCAR-3): 5.01 µM
- GI50 ([17]; Homo sapiens): 10 µM
- GI50 ([18]; Homo sapiens): 7.94 µM
- GI50 ([37]; Homo sapiens): 3.3 µM
- GI50 [37]: 3.05 µM
- TGI [37]: 33.29 µM
- GI50 [38]: 12.6 µM
- GI50 ([39]; Homo sapiens): 5.6 µM
- GI50 [39]: 5.64 µM
- TGI [39]: 19.62 µM
- GI50 ([20]; Homo sapiens): 5.01 µM
- GI50 ([21]; Homo sapiens): 15.8 µM
- GI50 ([22]; Homo sapiens): 3.98 µM
- GI50 ([23]; Homo sapiens): 10 µM
- GI50 ([24]; Homo sapiens, OVCAR-4): 7.94 µM
- GI50 ([25]; Homo sapiens): 1.99 µM
- GI50 ([27]; Homo sapiens): 10 µM
- GI50 ([40]; Homo sapiens): 4.7 µM
- GI50 [40]: 4.67 µM
- TGI [40]: 18.62 µM
- GI50 ([28]; Homo sapiens): 1.58 µM
- GI50 ([29]; Homo sapiens): 0.16 µM
- GI50 ([41]; Homo sapiens): 3.7 µM
- GI50 [41]: 3.68 µM
- TGI [41]: 12.49 µM
- GI50 ([42]; Homo sapiens): 2.1 µM
- GI50 [42]: 2.05 µM
- TGI [42]: 13.86 µM
- GI50 ([31]; Homo sapiens, OVCAR-5): 10 µM
- GI50 ([32]; Homo sapiens): 0.2 µM
- GI50 ([33]; Homo sapiens): 0.08 µM
- GI50 ([34]; Homo sapiens, MDA-MB-231): 12.6 µM
- GI50 ([43]; Homo sapiens): 3.3 µM
- GI50 [43]: 3.29 µM
- TGI [43]: 31.62 µM
